Data: patent US20130267513A1, “PYRAZOLOPYRIDINES AS INHIBITORS OF THE KINASE LRRK2” (priority 2010, published 2013)
pIC50, pKi: −log10 of the molar value.

What follows are molecules tested against T1, LRRK2 (Homo sapiens, UniProt Q5S007) (assay: LRRK2 KI determination). Settings: not given.
Assay type: biochemical
Target sequence in this assay (Q5S007 970-2527): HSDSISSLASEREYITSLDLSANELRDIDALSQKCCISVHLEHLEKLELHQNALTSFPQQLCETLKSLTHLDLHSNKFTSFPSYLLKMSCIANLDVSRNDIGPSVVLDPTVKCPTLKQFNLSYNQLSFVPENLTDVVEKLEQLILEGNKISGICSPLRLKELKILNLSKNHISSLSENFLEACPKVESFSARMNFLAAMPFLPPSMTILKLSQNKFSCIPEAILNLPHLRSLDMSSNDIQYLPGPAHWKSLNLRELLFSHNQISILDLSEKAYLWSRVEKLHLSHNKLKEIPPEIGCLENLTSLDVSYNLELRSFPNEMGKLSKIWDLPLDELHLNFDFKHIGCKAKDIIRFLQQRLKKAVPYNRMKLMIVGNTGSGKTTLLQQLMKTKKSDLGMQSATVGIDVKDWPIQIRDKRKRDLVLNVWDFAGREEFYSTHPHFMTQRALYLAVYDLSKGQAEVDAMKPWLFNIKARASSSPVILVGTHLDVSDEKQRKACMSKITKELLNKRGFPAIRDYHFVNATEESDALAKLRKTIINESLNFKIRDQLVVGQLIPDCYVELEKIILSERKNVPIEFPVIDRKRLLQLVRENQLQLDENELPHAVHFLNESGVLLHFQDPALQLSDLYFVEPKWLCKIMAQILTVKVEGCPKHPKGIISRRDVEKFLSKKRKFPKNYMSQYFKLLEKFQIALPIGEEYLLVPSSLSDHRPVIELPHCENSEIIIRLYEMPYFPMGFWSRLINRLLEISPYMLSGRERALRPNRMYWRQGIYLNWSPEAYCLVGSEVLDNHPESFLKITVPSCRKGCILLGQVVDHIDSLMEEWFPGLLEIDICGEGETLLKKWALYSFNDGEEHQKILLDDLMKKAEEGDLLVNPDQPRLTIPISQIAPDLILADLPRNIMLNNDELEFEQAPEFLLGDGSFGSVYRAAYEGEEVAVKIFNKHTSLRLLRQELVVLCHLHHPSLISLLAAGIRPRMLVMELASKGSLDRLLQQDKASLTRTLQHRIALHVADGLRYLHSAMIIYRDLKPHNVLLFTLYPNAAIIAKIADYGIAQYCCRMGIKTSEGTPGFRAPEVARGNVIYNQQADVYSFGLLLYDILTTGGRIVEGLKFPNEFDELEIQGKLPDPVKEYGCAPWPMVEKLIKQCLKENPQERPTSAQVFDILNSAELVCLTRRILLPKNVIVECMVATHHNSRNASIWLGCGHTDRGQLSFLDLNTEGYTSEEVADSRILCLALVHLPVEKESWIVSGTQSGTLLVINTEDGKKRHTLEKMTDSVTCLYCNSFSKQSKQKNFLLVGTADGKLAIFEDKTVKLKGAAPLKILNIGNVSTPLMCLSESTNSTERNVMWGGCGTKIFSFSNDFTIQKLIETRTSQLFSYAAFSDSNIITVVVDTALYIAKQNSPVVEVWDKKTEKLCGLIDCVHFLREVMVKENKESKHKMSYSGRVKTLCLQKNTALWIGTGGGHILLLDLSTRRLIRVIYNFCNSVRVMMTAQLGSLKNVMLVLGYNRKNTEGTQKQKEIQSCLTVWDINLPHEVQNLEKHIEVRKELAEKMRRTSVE

Row | SMILES | pKi
1 | Cc1cc2[nH]nc(-c3cc(C(=O)N(C)C)ccn3)c2c(NC2CCOCC2)n1 [Example 16, N,N-dimethyl-2-(6-methyl-4-(tetrahydro-2H-pyran-4-ylamino)-1H-pyrazolo[4,3-c]pyridin-3-yl)isonicotinamide] | 6.00 to 7.00
2 | Cc1cc2[nH]nc(-c3cnn(C4CCOCC4)c3)c2c(OC2CCOCC2)n1 [Example 24, 6-Methyl-3-(1-(tetrahydro-2H-pyran-4-yl)-1H-pyrazol-4-yl)-4-(tetrahydro-2H-pyran-4-yloxy)-1H-pyrazolo[4,3-c]pyridine] | > 7.00
3 | N#Cc1cc2[nH]nc(-c3ccnc(N4CCOCC4)c3)c2c(OC2CCOCC2)n1 [Example 13] | 6.00 to 7.00
4 | CC(C)n1cc(-c2n[nH]c3cc(C(F)(F)F)nc(OC4CCOCC4)c23)cn1 [Example 15, 3-(1-isopropyl-1H-pyrazol-4-yl)-4-(tetrahydro-2H-pyran-4-yloxy)-6-(trifluoromethyl)-1H-pyrazolo[4,3-c]pyridine] | > 7.00
5 | COc1nc(C)cc2[nH]nc(-c3ccnc(N4CCOCC4)c3)c12 [Example 20, 4-(4-(4-methoxy-6-methyl-1H-pyrazolo[4,3-c]pyridin-3-yl)pyridin-2-yl)morpholine] | 6.00 to 7.00
6 | Clc1cc2[nH]nc(-c3ccnc(N4CCOCC4)c3)c2c(OC2CCOCC2)n1 [Example 12, 4-(4-(6-chloro-4-(tetrahydro-2H-pyran-4-yloxy)-1H-pyrazolo[4,3-c]pyridin-3-yl)pyridin-2-yl)morpholine] | > 7.00
7 | CNC(=O)c1cccc(-c2[nH]nc3cc(C)nc(OC)c23)c1 [Example 21, 3-(4-Methoxy-6-methyl-1H-pyrazolo[4,3-c]pyridin-3-yl)-N-methylbenzamide] | 6.00 to 7.00
8 | Cc1[nH]nc2cc(C3CC3)nc(OC3CCCCC3)c12 [Example 14, 4-(cyclohexyloxy)-6-cyclopropyl-3-methyl-1H-pyrazolo[4,3-c]pyridine] | 6.00 to 7.00
9 | CNC(=O)c1cccc(-c2[nH]nc3cc(C)nc(OC4CCOCC4)c23)c1 [Example 23, N-Methyl-3-(6-Methyl-4-(tetrahydro-2H-pyran-4-yloxy)-1H-pyrazolo[4,3-c]pyridin-3-yl)benzamide] | 6.00 to 7.00
10 | Cc1cc2[nH]nc(-c3cc(C(F)(F)F)ncn3)c2c(NC2CCOCC2)n1 [Example 19, 6-methyl-N-(tetrahydro-2H-pyran-4-yl)-3-(6-(trifluoromethyl)pyrimidin-4-yl)-1H-pyrazolo[4,3-c]pyridin-4-amine] | > 7.00
11 | CCOc1cc(-c2n[nH]c3cc(C)nc(NC4CCOCC4)c23)ncn1 [Example 17, 3-(6-ethoxypyrimidin-4-yl)-6-methyl-N-(tetrahydro-2H-pyran-4-yl)-1H-pyrazolo[4,3-c]pyridin-4-amine] | > 7.00
12 | CC(C)Cn1cc(-c2n[nH]c3cc(C#N)nc(OC4CCOCC4)c23)cn1 [Example 11, 3-(1-isobutyl-1H-pyrazol-4-yl)-4-(tetrahydro-2H-pyran-4-yloxy)-1H-pyrazolo[4,3-c]pyridine-6-carbonitrile] | > 7.00
13 | Cc1cc2[nH]nc(-c3ccnc(N4CCOCC4)c3)c2c(OC2CCOCC2)n1 [Example 22, 4-(4-(6-Methyl-4-(tetrahydro-2H-pyran-4-yloxy)-1H-pyrazolo[4,3-c]pyridin-3-yl)pyridin-2-yl)morpholine] | > 7.00
14 | COc1nc(C)cc2[nH]nc(-c3cnn(C4CCOCC4)c3)c12 [Example 25, 4-Methoxy-6-methyl-3-(1-(tetrahydro-2H-pyran-4-yl)-1H-pyrazol-4-yl)-1H-pyrazolo[4,3-c]pyridine] | > 7.00
15 | Cc1cc2[nH]nc(-c3cc(C(F)(F)F)ccn3)c2c(NC2CCOCC2)n1 [Example 18, 6-methyl-N-(tetrahydro-2H-pyran-4-yl)-3-(4-(trifluoromethyl)pyridin-2-yl)-1H-pyrazolo[4,3-c]pyridin-4-amine] | > 7.00

The molecules below were run against T1, LRRK2 (assay: LRRK2 protein kinase assay ([γ-33P] ATP, peptide substrate), IC50). Settings: LRRK2 form (G2019S or wild type) not given; read-out: Potency scores (LRRK2 IC50).
Assay type: biochemical
Parameters: Potency scores (LRRK2 IC50); the wild type has the same borders, PV4873; fused on or other part: GST tag
Source text: All LRRK2 protein kinases were of human origin and were sourced from Invitrogen Corporation (Carlsbad, Calif. 92008 USA) unless otherwise indicated. The active mutant used was recombinant human, catalytic domain (amino acids 970-2527) containing a G2019S mutation, GST-tagged, expressed in insect cells (Invitrogen Cat#PV4881). The wild type used was recombinant human, catalytic domain (amino acids 970-2527) GST—tagged, expressed in insect cells (Invitrogen Cat#PV4873). The kinase dead mutant used was recombinant human, catalytic domain (amino acids 970-2527) containing a D1994A mutation, GST-tagged, expressed in insect cells (Invitrogen Cat#PM4041AE). No special measures were taken to activate any of the kinases.
All assays were carried out at room temperature ([…]) and were linear with respect to time and enzyme concentration under the conditions used. Assays were performed for 180 min in a 96 well format. LRRK2 was present at a concentration of approximately 5 nM.
The enzyme was diluted and assayed in 50 mM Tris-HCl pH7.5, 0.1 mM EGTA, 1 mM DTT and 10 mM MgCl2. The concentration of magnesium chloride in the assay was 10 mM. The [γ-33P] ATP (0.4 μCi/well) was used at 134 uM for G2019S mutant and at 57 μM for the wild type kinase in order to be at Km. The peptide substrate in the assay was […] at 100 μM.
The assays were initiated with Mg/ATP and stopped by the addition of 25 μl/well 50% orthophosphoric acid. Reactions were harvested onto Whatman P81 Unifilter Plates (Fisher Scientific. Loughborough, LE115RG, UK. Cat# FDU-105-020U) using a Tomtec harvester (Tomtec Hamden, Conn. 06514. USA). Plates were counted using a Perkin Elmer Top Count NX7. (Perkin Elmer, Shelton CT 06484-4794 USA)
IC50 values of inhibitors were determined after carrying out assays at 10 different concentrations of each compound in duplicate.
Target sequence in this assay (Q5S007 whole entry G2019S, form open): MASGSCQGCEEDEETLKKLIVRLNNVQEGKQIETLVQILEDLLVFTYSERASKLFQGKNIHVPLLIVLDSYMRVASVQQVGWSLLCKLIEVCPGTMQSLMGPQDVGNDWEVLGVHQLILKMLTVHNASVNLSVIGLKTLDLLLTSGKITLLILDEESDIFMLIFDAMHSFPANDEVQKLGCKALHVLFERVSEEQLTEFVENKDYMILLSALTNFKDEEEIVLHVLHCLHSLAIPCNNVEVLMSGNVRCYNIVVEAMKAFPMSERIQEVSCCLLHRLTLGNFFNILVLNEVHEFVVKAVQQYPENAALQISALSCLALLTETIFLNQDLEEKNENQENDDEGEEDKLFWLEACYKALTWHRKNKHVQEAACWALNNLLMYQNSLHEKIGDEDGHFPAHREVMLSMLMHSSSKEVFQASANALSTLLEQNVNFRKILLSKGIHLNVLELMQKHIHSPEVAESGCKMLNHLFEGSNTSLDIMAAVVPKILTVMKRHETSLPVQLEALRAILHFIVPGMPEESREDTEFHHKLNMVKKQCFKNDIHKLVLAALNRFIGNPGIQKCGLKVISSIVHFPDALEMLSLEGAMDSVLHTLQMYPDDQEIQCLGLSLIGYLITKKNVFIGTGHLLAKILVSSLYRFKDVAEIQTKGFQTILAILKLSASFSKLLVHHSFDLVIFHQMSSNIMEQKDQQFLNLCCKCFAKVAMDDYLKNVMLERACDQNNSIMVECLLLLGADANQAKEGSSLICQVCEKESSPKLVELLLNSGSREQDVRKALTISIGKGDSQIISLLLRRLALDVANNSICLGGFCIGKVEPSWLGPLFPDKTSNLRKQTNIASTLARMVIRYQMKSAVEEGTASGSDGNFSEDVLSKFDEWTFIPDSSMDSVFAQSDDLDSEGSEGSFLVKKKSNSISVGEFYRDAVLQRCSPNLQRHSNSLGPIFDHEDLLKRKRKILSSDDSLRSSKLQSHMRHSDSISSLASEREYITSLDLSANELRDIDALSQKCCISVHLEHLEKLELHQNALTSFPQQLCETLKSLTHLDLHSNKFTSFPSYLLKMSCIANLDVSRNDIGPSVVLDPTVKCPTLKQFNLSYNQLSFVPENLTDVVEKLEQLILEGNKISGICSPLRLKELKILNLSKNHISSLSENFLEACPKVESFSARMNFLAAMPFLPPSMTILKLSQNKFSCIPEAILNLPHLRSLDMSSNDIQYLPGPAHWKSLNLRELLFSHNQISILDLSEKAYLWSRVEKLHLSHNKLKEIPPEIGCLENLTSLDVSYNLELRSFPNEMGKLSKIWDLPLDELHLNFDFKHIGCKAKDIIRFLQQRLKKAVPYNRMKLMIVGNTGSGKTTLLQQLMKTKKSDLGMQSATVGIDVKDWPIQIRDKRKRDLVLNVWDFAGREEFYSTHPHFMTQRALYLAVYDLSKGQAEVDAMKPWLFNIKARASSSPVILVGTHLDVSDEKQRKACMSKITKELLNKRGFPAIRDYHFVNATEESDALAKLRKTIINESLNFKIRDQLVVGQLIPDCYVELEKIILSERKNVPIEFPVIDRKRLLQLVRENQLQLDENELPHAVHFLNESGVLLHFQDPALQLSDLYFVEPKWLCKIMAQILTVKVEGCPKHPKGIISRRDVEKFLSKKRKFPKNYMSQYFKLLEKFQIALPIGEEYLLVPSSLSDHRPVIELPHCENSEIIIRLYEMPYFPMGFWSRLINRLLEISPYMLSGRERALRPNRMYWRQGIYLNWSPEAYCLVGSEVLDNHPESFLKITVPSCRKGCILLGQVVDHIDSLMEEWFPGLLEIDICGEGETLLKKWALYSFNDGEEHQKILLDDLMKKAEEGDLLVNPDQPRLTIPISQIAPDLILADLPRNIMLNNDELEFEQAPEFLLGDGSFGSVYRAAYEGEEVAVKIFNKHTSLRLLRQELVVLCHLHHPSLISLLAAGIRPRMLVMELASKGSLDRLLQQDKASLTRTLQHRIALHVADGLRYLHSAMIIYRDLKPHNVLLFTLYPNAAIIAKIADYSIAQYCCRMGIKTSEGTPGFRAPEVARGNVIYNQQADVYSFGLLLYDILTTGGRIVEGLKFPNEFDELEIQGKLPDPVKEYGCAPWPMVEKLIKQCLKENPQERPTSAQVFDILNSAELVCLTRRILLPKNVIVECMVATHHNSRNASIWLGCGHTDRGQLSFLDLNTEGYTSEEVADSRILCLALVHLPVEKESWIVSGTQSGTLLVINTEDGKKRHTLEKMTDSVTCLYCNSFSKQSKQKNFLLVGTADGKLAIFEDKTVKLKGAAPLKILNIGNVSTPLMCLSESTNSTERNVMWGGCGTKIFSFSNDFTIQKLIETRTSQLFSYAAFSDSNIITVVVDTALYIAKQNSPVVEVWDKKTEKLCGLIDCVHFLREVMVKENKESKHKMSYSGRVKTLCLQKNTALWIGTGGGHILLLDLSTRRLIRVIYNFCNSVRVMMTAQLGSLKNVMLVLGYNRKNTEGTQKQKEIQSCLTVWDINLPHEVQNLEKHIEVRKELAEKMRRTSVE

Row | SMILES | pIC50
16 | Cc1cc2[nH]nc(C)c2c(OC2CCCCC2)n1 [Example 6] | 6.00 to 7.00
17 | Cc1n[nH]c2cc(Cl)nc(OC3CCCCC3)c12 [Example 2] | 6.00 to 7.00
18 | Cc1n[nH]c2cc(N3CCOCC3)nc(OC3CCCCC3)c12 [Example 3] | 5.00 to 6.00
19 | Cc1n[nH]c2cncc(OC3CCCCC3)c12 [Example 10] | 6.00 to 7.00
20 | Cc1n[nH]c2cncc(NC3CCCCC3)c12 [Example 9] | 6.00 to 7.00
21 | Cc1n[nH]c2cc(-c3cnn(C)c3)nc(OC3CCCCC3)c12 [Example 4] | 5.00 to 6.00
22 | Cc1cc2[nH]nc(C)c2c(NC2CCCCC2)n1 [Example 5] | 5.00 to 6.00
23 | Cc1n[nH]c2cc(Cl)nc(NC3CCCCC3)c12 [Example 1] | 6.00 to 7.00
24 | Cc1cc2[nH]nc(C)c2c(-c2ccco2)n1 [Example 7] | 6.00 to 7.00
25 | Cc1n[nH]c2cncc(-c3ccco3)c12 [Example 8] | 6.00 to 7.00
